Like-named read-outs stand apart in the source and are kept apart here.
Tests used:
[1] = system: rat NGF-induced vascular hyper permeability; assay: Inhibiting effect of rat NGF-induced vascular hyper permeability; format: in vivo; conditions: 1 mg/kg oral (as free base)
Procedure: TrkA-inhibiting activity of the present compound was evaluated in vivo. The present compound dissolved in a medium was orally administered (adminstered volume: 5 mL/kg) to male CD(SD)IGS rats (7- to 9-week old, Charles River Laboratories Japan, Inc.) shaved on the back. A medium was orally administered (adminstered volume: 5 mL/kg) to the control and normal groups. After 12 or 14 hours of administration, 3 μg/mL of an NGF (Mouse 2.5s, Natural, Invitrogen) solution prepared in 0.1% BSA (Sigma-Aldrich)-containing saline was intracutaneously administered (adminstered volume; 50 μL/site) at 3 sites on the back of animals under halothane anesthesia. For the normal group, 0.1% BSA-containing saline was intracutaneously administered (adminstered volume; 50 μL/site) at 3 sites on the back. Immediately after intracutaneous administration, 1% Evans Blue (Tokyo Chemical Industriy Co., Ltd.) dissolved in saline was administered intravenously from tail (adminstered volume: 3 mL/kg). After 10 minutes of administration, the animals were sacrificed by bleeding due to incision of the abdominal aorta. The sites of intracutaneous administration on the back (3 sites) were excised, and the skin samples were respectively transferred to the wells in a 48-well plate (Asahi Glass Co., Ltd.). […] The formamide extraction solution (200 μL) was transferred to a 96-well plate, and the absorbance (wavelength: 620 nm) of Evans Blue extracted in formamide was measured on an absorbance microplate reader (SpectraMAX 190, Molecular Devices Japan, K.K.). Standard samples of Evans Blue dissolved in formamide (0, 0.78, 1.56, 3.13, 6.25, 12.5, 25, and 50 μg/mL) were measured at the same time for the absorbance (wavelength: 620 nm), thereby preparing a calibration curve. Based on the calibration curve and the absorbances of the respective samples, the concentrations of Evans Blue in each sample was calculated. […] The rate of inhibition for rat NGF-induced vascular hyper permeability of the present compound was calculated according to the following Equation 4. […]

[2] = system: sodium monoiodoacetate-induced model rats; assay: Analgesic effect on sodium monoiodoacetate-induced model rats; format: in vivo, rat; conditions: MIA rats, day 24
[3] = Test regarding solubility in artificial intestinal juice (FaSSIF); format: physicochemical; conditions: after lapsing 0.25 hours; for solubility at 0.25 h / solubility: artificial intestinal juice (FaSSIF); for solubility at 0.25 h: 37 °C, fassif, thermodynamic from solid; for solubility per free base / solubility: 37° C.
Procedure: About 5 mg of the present compound was weighed in a test tube, a stirrer and 5 mL of an artificial intestinal juice (FaSSIF; Reference 1: Pharmaceutical Research, Vol. 20, pp. 1674-1680, 2003, and Reference 2: Biological & Pharmaceutical Bulletin, Vol. 34, pp. 401-407, 2011) were added in the test tube, and the test tube was then hermetically sealed. The test tube was placed in a solubility test apparatus (Gilson, Quad-Z 215), and stirring was performed at 37° C. and 700 rpm. A part of the liquid in the test tube was collected after lapsing 0.25, 0.5, 1, 3, 6, and 24 hours, respectively. The collected liquid was filtered with a filter, and the filtrate was diluted to 2-fold with acetonitrile. The diluted liquid was centrifuged at 3,000 rpm for 5 minutes. A supernatant after centrifugation was used as a sample solution and calculated for solubility by means of high-performance liquid chromatography.
High-Performance Liquid Chromatography Measurement Conditions

[4] = 14 hours before administration of NGF
[5] = present compound oral twice a day over 10 days, then 3 hours before measurement, dose (0.1, 0.3 or 1 mg/kg) not given
[6] = FaSSIF, salt value converted to the corresponding free base, read-out: solubility per free base
[7] = FaSSIF, salt value converted to the corresponding free base, Methanesulfonate
[8] = as the substance itself (salt or free base), Methanesulfonate

## CS(=O)(=O)c1ccc(C(F)(F)F)cc1NC(=O)Nc1cnc(Oc2ccc(-c3cc(Cl)cnc3N)cc2)nc1.Cl [hydrochloride of Compound (I), 1-{2-[4-(2-amino-5-chloro-3-pyridinyl)phenoxy]-5-pyrimidinyl}-3-[2-(methylsulfonyl)-5-(trifluoromethyl)phenyl]urea Hydrochloride]
[1]; [4]
  inhibition rate of rat NGF-induced vascular hyper permeability: about 100%
[2]; [5]
  percent improvement (right hind limb weight load ratio): about 54%

## CN1CC[C@]23c4c5ccc(O)c4O[C@H]2[C@@H](O)C=C[C@H]3[C@H]1C5 [morphine, reference compound]
[2]; morphine 3 mg/kg subcutaneous one hour before measurement
  percent improvement (right hind limb weight load ratio): 54%

## Nc1ncc(Cl)cc1-c1ccc(Oc2ncc(NC(=O)Nc3cc(C(F)(F)F)ccc3-n3cccn3)cn2)cc1 [p-toluenesulfonate of Compound (III), 1-(2-(1H-pyrazol-1-yl)-5-(trifluoromethyl)phenyl)-3-(2-(4-(2-amino-5-chloropyridin-3-yl)phenoxy)pyrimidin-5-yl)urea p-Toluenesulfonate]
[3]; [6]
  solubility at 0.25 h: 0.042 mg/mL
[3]; as the substance itself (salt or free base), read-out: solubility
  solubility at 0.25 h: 0.055 mg/mL

## CS(=O)(=O)c1ccc(C(F)(F)F)cc1NC(=O)Nc1cnc(Oc2ccc(-c3cc(Cl)cnc3N)cc2)nc1 [methanesulfonate of Compound (I), 1-{2-[4-(2-amino-5-chloro-3-pyridinyl)phenoxy]-5-pyrimidinyl}-3-[2-(methylsulfonyl)-5-(trifluoromethyl)phenyl]urea Methanesulfonate]
[3]; [7]
  solubility per free base: 0.047 mg/mL
[3]; [8]
  solubility: 0.055 mg/mL

## COc1cccc(C2(O)CCCCC2CN(C)C)c1 (stereo not drawn) [tramadol, reference compound]
[2]; tramadol 10 mg/kg subcutaneous one hour before measurement
  percent improvement (right hind limb weight load ratio): 43%

## CS(=O)(=O)c1ccc(C(F)(F)F)cc1NC(=O)Nc1cnc(Oc2ccc(-c3cc(Cl)cnc3N)cc2)nc1 [Compound (I), 1-{2-[4-(2-amino-5-chloro-3-pyridinyl)phenoxy]-5-pyrimidinyl}-3-[2-(methylsulfonyl)-5-(trifluoromethyl)phenyl]urea]
[3]; as the substance itself (salt or free base)
  solubility: 0.007 mg/mL

## Nc1ncc(Cl)cc1-c1ccc(Oc2ncc(NC(=O)Nc3cc(C(F)(F)F)ccc3-n3cccn3)cn2)cc1 [methanesulfonate of Compound (III), 1-(2-(1H-pyrazol-1-yl)-5-(trifluoromethyl)phenyl)-3-(2-(4-(2-amino-5-chloropyridin-3-yl)phenoxy)pyrimidin-5-yl)urea Methanesulfonate]
[3]; [7]
  solubility per free base: 0.045 mg/mL
[3]; [8]
  solubility: 0.053 mg/mL
[1]; [4]
  inhibition rate of rat NGF-induced vascular hyper permeability: about 97%
[2]; [5]
  percent improvement (right hind limb weight load ratio): about 61%

## CS(=O)(=O)c1ccc(C(F)(F)F)cc1NC(=O)Nc1cnc(Oc2ccc(-c3cc(Cl)cnc3N)cc2)nc1 [p-toluenesulfonate of Compound (I), 1-{2-[4-(2-amino-5-chloro-3-pyridinyl)phenoxy]-5-pyrimidinyl}-3-[2-(methylsulfonyl)-5-(trifluoromethyl)phenyl]urea p-toluenesulfonate]
[3]; as the substance itself (salt or free base), p-toluenesulfonate
  solubility: 0.096 mg/mL
[3]; [6]
  solubility at 0.25 h: 0.074 mg/mL

## Nc1ncc(F)cc1-c1ccc(Oc2ncc(NC(=O)Nc3cc(C(F)(F)F)ccc3-c3cccnc3)cn2)cc1 [dibenzenesulfonate of Compound (II), 1-{2-[4-(2-amino-5-fluoropyridin-3-yl)phenoxy]pyrimidin-5-yl}-3-[2-(pyridin-3-yl)-5-(trifluoromethyl)phenyl]urea dibenzenesulfonate]
[3]; FaSSIF, salt value converted to the corresponding free base, dibenzenesulfonate
  solubility per free base: 0.052 mg/mL
[3]; as the substance itself (salt or free base), dibenzenesulfonate
  solubility: 0.081 mg/mL

## Nc1ncc(F)cc1-c1ccc(Oc2ncc(NC(=O)Nc3cc(C(F)(F)F)ccc3-c3cccnc3)cn2)cc1 [di(p-toluenesulfonate) of Compound (II), 1-{2-[4-(2-amino-5-fluoropyridin-3-yl)phenoxy]pyrimidin-5-yl}-3-[2-(pyridin-3-yl)-5-(trifluoromethyl)phenyl]urea di(p-toluenesulfonate)]
[3]; as the substance itself (salt or free base), di(p-toluenesulfonate)
  solubility: 0.099 mg/mL
[3]; [6]
  solubility at 0.25 h: 0.061 mg/mL
[1]; 12 hours before administration of NGF
  inhibition rate of rat NGF-induced vascular hyper permeability: about 78%
[2]; [5]
  percent improvement (right hind limb weight load ratio): about 53%

Reference: patent publication US10399959B2, “Acid-addition salt of Trk-inhibiting compound” (ONO PHARMACEUTICAL CO., LTD., priority 2014, dated 2019)
